Activity calls are given as the source filed them. The calls are words filed in the database; no cut-off is given here.

Data set [1] can be described thus: Inhibition of PI3K (unknown origin) by TR-FRET assay. Also noted: species or system Homo sapiens. (TR-FRET usually uses a lanthanide donor and a delayed reading to cut background.)
In data set [2] the target is T1, Dual specificity mitogen-activated protein kinase kinase 1 (Homo sapiens, UniProt Q02750). Description: Inhibition of MEK1 in human A549 cells assessed as reduction in pErk1/2 level after 1 hr by Western blotting analysis. The format is cell-based. In general terms: A western blot detects proteins with antibodies after separation by electrophoresis.
T1 sequence (Q02750 whole entry): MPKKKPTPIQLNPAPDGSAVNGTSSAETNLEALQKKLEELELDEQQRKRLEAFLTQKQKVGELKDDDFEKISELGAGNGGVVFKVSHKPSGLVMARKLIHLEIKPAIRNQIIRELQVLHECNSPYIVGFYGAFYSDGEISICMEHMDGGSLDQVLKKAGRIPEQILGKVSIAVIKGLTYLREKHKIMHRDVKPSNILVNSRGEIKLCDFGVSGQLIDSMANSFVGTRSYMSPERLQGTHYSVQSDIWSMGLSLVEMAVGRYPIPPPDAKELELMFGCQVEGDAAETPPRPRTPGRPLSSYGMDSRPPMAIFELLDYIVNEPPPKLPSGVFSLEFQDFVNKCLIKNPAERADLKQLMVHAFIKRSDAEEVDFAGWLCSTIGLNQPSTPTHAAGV
The test system of data set [3] is A549. Description: Inhibition of PI3K in human A549 cells assessed as reduction in pAkt level at 25 uM after 1 hr by Western blotting analysis. It counts as cell-based.
For data set [4], the species on record is Mus musculus. Description: Inhibition of PI3K in mouse lung fibroblast assessed as reduction in pAkt level at 25 uM after 1 hr by Western blotting analysis.
For data set [5], the species on record is Mus musculus. Description: Inhibition of PI3K in mouse lung fibroblast assessed as reduction in pAkt level after 1 hr by Western blotting analysis.
The target in data set [6] is T1, Dual specificity mitogen-activated protein kinase kinase 1. Put plainly: Inhibition of MEK1 in human A549 cells assessed as reduction in pErk1/2 level at 25 uM after 1 hr by Western blotting analysis. The format is cell-based.
Data set [7] has as its system A549. Description: Cytotoxicity against human A549 cells at 10 to 25 uM after 24 hrs by Alamar Blue assay. The format is functional.
Data set [8] has as its target Protein kinase C alpha type (Homo sapiens, UniProt P17252). Put plainly: Inhibition of PKC-alpha (unknown origin).
Data set [9] deals with PANC-1. Description: Inhibition of PI3K in human PANC1 cells assessed as reduction in pAkt level after 1 hr by Western blotting analysis. The format is cell-based.
Data set [10] deals with Dual specificity mitogen-activated protein kinase kinase 1 (Mus musculus) (UniProt P31938). Put plainly: Inhibition of MEK1 in mouse lung fibroblast assessed as reduction in pErk1/2 level after 1 hr by Western blotting analysis.
Chain of Dual specificity mitogen-activated protein kinase kinase 1 (Mus musculus) (P31938 whole entry): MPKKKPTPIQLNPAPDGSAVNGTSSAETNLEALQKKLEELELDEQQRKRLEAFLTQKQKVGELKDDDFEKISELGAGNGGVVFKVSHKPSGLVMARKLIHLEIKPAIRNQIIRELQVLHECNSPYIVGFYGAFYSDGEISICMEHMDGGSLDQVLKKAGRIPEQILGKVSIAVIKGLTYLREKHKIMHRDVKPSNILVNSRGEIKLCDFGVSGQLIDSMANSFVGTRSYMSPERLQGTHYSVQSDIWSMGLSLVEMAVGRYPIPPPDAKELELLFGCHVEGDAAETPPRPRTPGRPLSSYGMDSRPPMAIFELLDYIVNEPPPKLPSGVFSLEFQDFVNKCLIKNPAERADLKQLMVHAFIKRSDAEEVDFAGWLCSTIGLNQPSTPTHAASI
Data set [11] in a line: Cytotoxicity against mouse lung fibroblast at 10 to 25 uM after 24 hrs by Alamar Blue assay. The format is cell-based. In general terms: The colour change of resazurin is a common sign of viable cells or microbes.
Data set [12] deals with Dual specificity mitogen-activated protein kinase kinase 1 (Mus musculus) (UniProt P31938). Put plainly: Inhibition of MEK1 in mouse lung fibroblast assessed as reduction in pErk1/2 level at 25 uM after 1 hr by Western blotting analysis.
For data set [13], the target named is Epidermal growth factor receptor (Homo sapiens, UniProt P00533). Put plainly: Inhibition of EGFR (unknown origin).
Chain of Epidermal growth factor receptor (P00533 whole entry): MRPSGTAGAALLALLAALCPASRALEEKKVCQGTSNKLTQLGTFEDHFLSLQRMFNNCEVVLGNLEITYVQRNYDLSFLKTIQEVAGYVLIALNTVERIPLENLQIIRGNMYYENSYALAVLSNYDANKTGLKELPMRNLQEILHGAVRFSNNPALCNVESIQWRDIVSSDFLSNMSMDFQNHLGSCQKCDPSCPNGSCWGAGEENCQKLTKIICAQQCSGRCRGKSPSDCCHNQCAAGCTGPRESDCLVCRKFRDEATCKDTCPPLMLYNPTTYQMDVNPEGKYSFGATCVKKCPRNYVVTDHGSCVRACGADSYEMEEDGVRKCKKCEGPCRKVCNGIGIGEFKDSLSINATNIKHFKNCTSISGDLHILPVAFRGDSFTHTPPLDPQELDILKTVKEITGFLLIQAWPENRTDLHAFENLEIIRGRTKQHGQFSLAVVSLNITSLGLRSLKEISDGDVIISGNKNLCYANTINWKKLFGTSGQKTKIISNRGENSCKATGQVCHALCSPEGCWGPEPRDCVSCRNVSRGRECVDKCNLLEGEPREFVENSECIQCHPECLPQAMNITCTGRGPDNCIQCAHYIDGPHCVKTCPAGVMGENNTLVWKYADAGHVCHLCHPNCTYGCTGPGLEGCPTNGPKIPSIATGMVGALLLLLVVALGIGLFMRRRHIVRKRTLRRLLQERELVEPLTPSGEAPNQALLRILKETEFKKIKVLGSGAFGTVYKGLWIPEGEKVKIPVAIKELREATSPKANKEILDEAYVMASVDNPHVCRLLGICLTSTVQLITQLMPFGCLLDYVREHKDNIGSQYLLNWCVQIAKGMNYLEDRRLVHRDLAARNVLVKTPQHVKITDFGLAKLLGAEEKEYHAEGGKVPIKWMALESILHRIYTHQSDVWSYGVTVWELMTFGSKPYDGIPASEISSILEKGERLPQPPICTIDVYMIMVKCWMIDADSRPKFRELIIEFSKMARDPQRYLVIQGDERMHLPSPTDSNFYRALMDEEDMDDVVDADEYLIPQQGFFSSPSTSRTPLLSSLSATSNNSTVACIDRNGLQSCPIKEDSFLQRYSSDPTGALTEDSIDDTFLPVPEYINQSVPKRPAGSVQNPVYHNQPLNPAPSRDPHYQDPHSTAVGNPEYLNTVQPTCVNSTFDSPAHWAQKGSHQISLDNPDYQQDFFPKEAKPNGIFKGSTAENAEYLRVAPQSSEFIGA
Data set [14] is described as follows: Inhibition of ERK (unknown origin). Also noted: species or system Homo sapiens.
Data set [15] is described as follows: Cytotoxicity against human PANC1 cells at 10 to 25 uM after 24 hrs by Alamar Blue assay. It counts as functional, PANC-1.
Data set [16] has as its target T1, Dual specificity mitogen-activated protein kinase kinase 1. Put plainly: Inhibition of MEK1 in human PANC1 cells assessed as reduction in pErk1/2 level at 25 uM after 1 hr by Western blotting analysis. The format is cell-based. The note with it: PANC-1.
Another data set addresses Aurora kinase B (Homo sapiens, UniProt Q96GD4). Description: Inhibition of AurB (unknown origin).
Data set [17] deals with T1, Dual specificity mitogen-activated protein kinase kinase 1. Description: Inhibition of MEK1 in human PANC1 cells assessed as reduction in pErk1/2 level after 1 hr by Western blotting analysis. As to conditions: PANC-1. The format is cell-based.
Data set [18] has as its system PANC-1. Description: Inhibition of PI3K in human PANC1 cells assessed as reduction in pAkt level at 25 uM after 1 hr by Western blotting analysis. The format is cell-based.
In data set [19] the test system is A549. Description: Inhibition of PI3K in human A549 cells assessed as reduction in pAkt level after 1 hr by Western blotting analysis. It counts as cell-based.
The species entered for data set [20] is Mus musculus. Put plainly: Inhibition of PI3K in mouse lung fibroblast assessed as reduction in pAkt level at 10 uM after 1 hr by Western blotting analysis.
The target of data set [21] is Dual specificity mitogen-activated protein kinase kinase 1 (Mus musculus) (UniProt P31938). Description: Inhibition of MEK1 in mouse lung fibroblast assessed as reduction in pErk1/2 level at 10 uM after 1 hr by Western blotting analysis.
Data set [22] concerns PANC-1. Put plainly: Inhibition of PI3K in human PANC1 cells assessed as reduction in pAkt level at 10 uM after 1 hr by Western blotting analysis. The format is cell-based.
The subject of data set [23] is A549. Put plainly: Inhibition of PI3K in human A549 cells assessed as reduction in pAkt level at 10 uM after 1 hr by Western blotting analysis. It counts as cell-based.

Chain of Aurora kinase B (Q96GD4 whole entry): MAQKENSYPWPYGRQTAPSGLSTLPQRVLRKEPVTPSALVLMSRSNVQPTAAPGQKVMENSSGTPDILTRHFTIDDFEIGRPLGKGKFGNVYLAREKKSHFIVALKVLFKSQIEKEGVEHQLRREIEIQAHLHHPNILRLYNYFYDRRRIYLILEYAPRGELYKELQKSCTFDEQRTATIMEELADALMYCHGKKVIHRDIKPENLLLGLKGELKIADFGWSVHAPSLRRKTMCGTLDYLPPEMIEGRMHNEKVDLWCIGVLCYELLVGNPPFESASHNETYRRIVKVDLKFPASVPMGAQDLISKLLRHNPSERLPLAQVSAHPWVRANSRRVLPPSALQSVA

Turning to `O=C(CCCCC[N+](=O)[O-])N1CCN(c2nc(N3CCOCC3)nc(-n3c(C(F)F)nc4ccccc43)n2)CC1`, the IC50 (commonly the midpoint of a concentration-inhibition curve) in data set [1] is above 1 µM.

Regarding `Cc1c(Cc2cccc(N(C)S(=O)(=O)CCCNCCCCCC(=O)N3CCN(c4nc(N5CCOCC5)nc(-n5c(C(F)F)nc6ccccc65)n4)CC3)c2)c(=O)oc2cc(OC(=O)N(C)C)ccc12`, the IC50 is 0.172 µM in data set [1]; above 10 µM in [8]; above 10 µM in [13]; above 10 µM in data set [14]; above 10 µM on Aurora kinase B. Also, the inhibition result (in data set [2]; in the data set filed under Mus musculus [5]; with PANC-1 [9]; in data set [10]; in [17]; in the data set with A549 [19]) was “Dose-dependent effect” throughout. Further, the inhibition result (in the data set with A549 [3]; in the data set filed under Mus musculus [4]; in [6]; in data set [12]; in [16]; in the data set on PANC-1 [18]) was “Active” each time. The Activity in the data set on A549 [7] is on record as 50%; in data set [11] it was “Non-toxic”; in [15], 50%.

Turning to `CNS(=O)(=O)Nc1nccc(Cc2c(C)c3ccc(Oc4ncccn4)cc3oc2=O)c1F`, the inhibition entry in the data set filed under Mus musculus [20], in the data set on PANC-1 [22] and in the data set with A549 [23] was “inactive” each time. Also, the inhibition result in data set [21] was “Active”.

Turning to `NCCCCCC(=O)N1CCN(c2nc(N3CCOCC3)nc(-n3c(C(F)F)nc4ccccc43)n2)CC1`, in data set [1], the 50% inhibitory concentration (IC50) is below 0.1 µM.

On to `O=C(NOC[C@H](O)CO)c1ccc(F)c(F)c1Nc1ccc(I)cc1F`, for which the inhibition entry in the data set filed under Mus musculus [20], in the data set on PANC-1 [22] and with A549 [23] was “inactive” in each case. The inhibition entry in data set [21] was “Active”.

Regarding `FC(F)c1nc2ccccc2n1-c1nc(N2CCOCC2)nc(N2CCOCC2)n1`, the inhibition entry in the data set filed under Mus musculus [20], in the data set with PANC-1 [22] and with A549 [23] was “Active” each time. In addition, in data set [21], the inhibition result was “inactive”.
